# Tested on: monocyte-derived dendritic cells
# Assay: Surface expression of phenotypic markers on monocyte-derived dendritic cells (immunofluorescence, flow cytometry)
# Type: cell-based, human
# Protocol: Purified monocytes (>85% monocytes)(1.5.10^6/flask)(Corning Costar, High Wycombe, UK) were incubated in 5 ml of tissue culture medium (TCM)(RPMI 1640 medium (Sigma, Poole, UK) supplemented with 10% heat-inactivated foetal calf serum (FCS)(Life Technologies, Paisley, UK). iDC were generated using granulocyte macrophage—colony stimulating factor (GM-CSF) (1000 U/ml)(Novartis Research Institute, Vienna, Austria) and IL-4 (500 U/ml) (R&D Systems, Oxford, UK). Monocytes were cultured for 3 or 7 days with cytokines, either alone or in the presence of rhuBiP (20 μg/ml). Mature DC were generated by addition of 500 ng/ml lipopolysaccharide (LPS) for the final 2 days of culture.
# Immunofluorescent staining was performed as follows when required. Cells were suspended in immunofluorescent buffer (IF) (PBS/0.1% BSA/0.05% azide) washed and incubated for 10 mins on ice with normal human serum. After washing twice in IF buffer, saturating concentrations of fluorescein isothiocyanate (FITC)-, phycoerythrin (PE) or peridium chlorophyll (Per-CP)-conjugated monoclonal antibodies (mAb) recognizing human CD14, CD86, CD80, HLA-DR, CD11c, CD1a, CD83, CD40 and CD85j, (all from Becton Dickinson/PharMingen, Oxford, UK) were added singly or in combination, as stated in the text, to cells for 20 mins on ice. Cells were then washed twice in IF buffer and analysed. Isotype controls, IgG1 and IgG2a (Becton Dickinson, Oxford, UK) were used in parallel.
# Purified monocytes were cultured with and without BiP for three days (early DC/early DC(BiP)) or 7 days with GM-CSF and IL-4 (iDC/iDC(BiP)) or for 7 days with additional LPS for the final 2 days (mDC/mDC(BiP)). *BiP [20 μg/ml] was added at the same time as the cytokines. (a) and (b): Results are expressed as mean and standard error (mean ±SE) of the % positive cells from 4 or 7 different experiments, respectively.
# Table A: Surface expression of phenotypic markers: Purified monocytes were differentiated into immature dendritic cells (iDC) with GM-CSF and IL-4 for 7d in the presence or absence of BiP (20 μg/ml). LPS (500 ng/ml) was added for the final 2d to give mature DC(mDC). Cell surface expression of molecules was measured by immunofluorescence and flow cytometry. Results are expressed as mean and standard deviation (mean ±SD) of the mean fluorescent intensity (MFI) from 7 different experiments:
# Purified MO (>85% monocytes)(1.5.106/flask)(Corning Costar, High Wycombe, UK) were incubated in 5 ml of tissue culture medium (TCM)(RPMI 1640 medium (Sigma, Poole, UK) supplemented with 10% heat-inactivated foetal calf serum (FCS)(Life Technologies, Paisley, UK). iDC were generated by culturing MO with granulocyte macrophage-colony stimulating factor (GM-CSF) (1000 U/ml)(Novartis Research Institute, Vienna, Austria) and IL-4 (500 U/ml) (R&D Systems, Oxford, UK) for 3 or 7d, either alone or in the presence of rhuBiP (20 μg/ml). Cytokines and BiP were replenished every 2d. Mature DC were generated by addition of LPS (500 ng/ml) for the final 2d of a 7d culture.
# Immunofluorescent staining was performed, as described previously (39), on DC harvested at day 7, T cells after 4 days co-culture with DC. Saturating concentrations of fluorescein isothiocyanate (FITC)-, phycoerythrin (PE) or peridium chlorophyll (Per-CP)-conjugated mAb were added recognizing CD14, CD86, CD80, HLA-DR, CD11c, CD1a, CD83, CD85j, IL-10 receptor; purity of the negatively selected MO and T cells was checked using CD3, CD4, CD14, CD20 and CD57 (all from Becton Dickinson/PharMingen (BD), Oxford, UK). Intracellular staining was carried out following fixation of cells with 1% paraformaldehyde for 5 minutes. Cells were then washed with immunofluorescence buffer (PBS/0.1% BSA/0.05% azide) containing 0.3% saponin. 0.3% saponin was then present in all solutions thereafter. CD152/CTLA-4 (BD, Oxford UK) and IDO (Santa Cruz, Autogen Bioclear, UK) were intracellular stains. Isotype controls, IgG1 and IgG2a (BD, Oxford, UK) were used in parallel. […]
# [1] = Early iDC(BiP): 3 days GM-CSF and IL-4, BiP 20 μg/ml, mean ±SE
# [2] = iDC(BiP): 7 days GM-CSF and IL-4, BiP 20 μg/ml, mean ±SE
# [3] = mDC(BiP), BiP 20 μg/ml, mean fluorescence intensity, up to 7 experiments
# [4] = mDC(BiP): 7 days GM-CSF and IL-4, LPS final 2 days, BiP 20 μg/ml, mean ±SE
substance,measurement,setting,value
BiP: 78 kD endoplasmic reticulum chaperone protein as disclosed in WO 00/21995; recombinant human protein,% cells CD1a+,[1],1 ± 2%
same,% cells CD11c+,[1],81 ± 7%
same,% cells CD80+,[1],36 ± 15%
same,% cells CD83,[1],2. ± 2%
same,% cells CD86+,[1],3 ± 1%
same,% cells HLA-DR,[1],31 ± 7%
same,% cells CD14,"Early iDC(BiP): monocytes 3 days with GM-CSF and IL-4, BiP 20 μg/ml, mean ±SE",91 ± 6%
same,MFI CD11c,"iDC(BiP), BiP 20 μg/ml, mean fluorescence intensity, up to 7 experiments",2246 ± 329
same,% positive cells CD40+85j+,"iDC(BiP): 7 days GM-CSF and IL-4, BiP 20 μg/ml",26±19%
same,% positive cells CD1a+,[2],83 ± 9%
same,% positive cells CD11c+,[2],97 ± 2%
same,% positive cells CD14+,[2],59 ± 22%
same,% positive cells CD40+,[2],28 ± 20%
same,% positive cells CD80+,[2],88 ± 7%
same,% positive cells CD83+,[2],10 ± 5%
same,% positive cells CD86+,[2],31 ± 11%
same,% positive cells CD210+,[2],12 ± 9%
same,% positive cells HLA-DR+,[2],96 ± 2%
same,maturation as determined by upregulation of CD83 after addition of LPS,mDC(BiP) (FIG. 10C),failed to mature
same,CD40 expression by mDC(BiP),mDC(BiP) versus mDC,no difference in CD40 expression
same,MFI CD1a,[3],685 ± 145
same,MFI CD14,[3],366 ± 216
same,MFI CD80,[3],395 ± 31
same,MFI CD86,[3],112 ± 14
same,MFI HLA-DR,[3],1660 ± 167
same,cell surface expression of CD85j (ILT2),"mDC(BiP), n=4",87.2±3.5%
same,% positive cells CD1a+,[4],76 ± 14%
same,% positive cells CD11c+,[4],94 ± 5%
same,% positive cells CD14+,[4],57 ± 22%
same,% positive cells CD40+,[4],32 ± 24%
same,% positive cells CD40+85j+,[4],29 ± 23%
same,% positive cells CD80+,[4],91 ± 6%
same,% positive cells CD83+,[4],10 ± 4%
same,% positive cells CD86+,[4],26 ± 9%
same,% positive cells CD210+,[4],19 ± 17%
same,% positive cells HLA-DR+,[4],96 ± 1%
same,CD14 and CD86 expression on DC cultured in the presence of BiP,"mature DC, dose-dependent 0.5-20 μg/ml BiP (FIG. 10B)",sustained CD14 expression and failed to upregulate CD86

# From US20080155704A1, “Methods and Compositions for Determining in vivo Activity of BiP” (King's College London, priority 2006, published 2008)
